The results in this text go back to patent publication USRE37886E1, “1-(1,2-Disubstituted piperidinyl)-4-substituted piperazine derivatives” (Janssen Pharmaceuticals, N.V., priority 1995, dated 2002).

In series [1] the test system is substance P induced plasma extravasation. As to the kind of experiment: Antagonism of substance P induced plasma extravasation in guinea-pigs. It is filed as in vivo. The conditions noted are these: lowest active dose, female guinea-pigs; for LAD nose: compound 1 hour prior to substance P (2 mg/kg, femoral artery), blue colouring of nose 10 minutes after challenge; for LAD conjunctiva / LAD forepaws / LAD trachea / LAD urinary bladder: compound 1 hour prior to substance P; for LAD conjunctiva: blue colouring of conjunctiva 10 minutes after challenge; for LAD forepaws: blue colouring of forepaws 10 minutes after challenge; for LAD trachea: blue colouring of trachea 30 minutes after challenge; for LAD urinary bladder: blue colouring of urinary bladder 30 minutes after challenge. The method in brief: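 Female guinea-pigs dosed with compound 1 hour before femoral-artery substance P (2 mg/kg) plus Evans Blue (30 mg/kg). Blue colouring of nose, forepaws and conjunctiva scored at 10 minutes, trachea and bladder at 30 minutes; value is lowest active dose (mg/kg).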

Series [2] deals with substance-P induced relaxation of the pig coronary arteries. Description: Antagonism of substance-P induced relaxation of the pig coronary arteries. It is filed as cell-based. To be noted: concentration at which 50% of the response to 10^−9 M substance P was inhibited, 30 minutes incubation, prostaglandin F2a precontracted segments. The method in brief: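 Inverted pig coronary artery segments (endothelium outside) in Krebs-Henseleit, 37 °C, O2/CO2 95/5, precontracted with prostaglandin F2a (10^−5 M); substance P 3×10^−10 and 10^−9 M added cumulatively. Compound incubated 30 min before repeat challenge; IC50 is concentration inhibiting 50% of the relaxation to 10^−9 M substance P.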

As to `O=C(c1cc(C(F)(F)F)cc(C(F)(F)F)c1)N1CC[C@H](N2CCN(Cc3ccccc3)CC2)C[C@@H]1Cc1ccccc1` (racemic) [Compound 16, (±)-cis-1-[3,5-bis(trifluoromethyl)benzoyl]-2-(phenylmethyl)-4-[4-(phenylmethyl)-1-piperazinyl]piperidine], the melting point amounted to 143.8 °C. In series [1], this compound came in with an LAD nose of 40.0 mg/kg, an LAD conjunctiva of 40.0 mg/kg, an LAD forepaws of 40.0 mg/kg and an LAD trachea of over 40 mg/kg. The LAD urinary bladder in series [1] is listed as over 40 mg/kg.
With `O=C(c1cc(C(F)(F)F)cc(C(F)(F)F)c1)N1CC[C@@H](N2CCN(Cc3ccccc3)CC2)C[C@@H]1Cc1ccccc1` (racemic) [Compound 17, (±)-trans-1-[3,5-bis(trifluoromethyl)benzoyl]-2-(phenylmethyl)-4-[4-(phenylmethyl)-1-piperazinyl]piperidine (E)-2-butenedioate(1:2)], the melting point stood at 240.3 °C. For the same compound, in series [1], the LAD nose is reported as 10.0 mg/kg, the LAD conjunctiva is 10.0 mg/kg, the LAD forepaws came to 10.0 mg/kg and the LAD trachea is recorded as over 40 mg/kg. Also, the LAD urinary bladder in series [1] worked out at 10.0 mg/kg. In addition, the IC50 in series [2] (Sus scrofa, 0.5 h) was determined as 1680 pM.
Regarding `Cc1cccc(C)c1NC(=O)CN1CCN(C2CCN(C(=O)c3cc(C(F)(F)F)cc(C(F)(F)F)c3)C(Cc3ccc(Cl)c(Cl)c3)C2)CC1` (racemic) [Compound 138], in series [1], the LAD nose is recorded as 2.50 mg/kg, the LAD conjunctiva is 2.50 mg/kg, the LAD forepaws is recorded as 2.50 mg/kg and the LAD trachea was determined as 10.0 mg/kg. The same compound yielded an LAD urinary bladder in series [1] of over 40 mg/kg. In series [2], the IC50 worked out at 160 pM.
Take `Cc1cccc(C)c1NC(=O)CN1CCN(C2CCN(C(=O)c3cc(C(F)(F)F)cc(C(F)(F)F)c3)C(Cc3ccc(F)c(F)c3)C2)CC1` (racemic) [Compound 135]: in series [1], the LAD nose came to 0.63 mg/kg, the LAD conjunctiva was determined as 0.63 mg/kg, the LAD forepaws was 0.63 mg/kg and the LAD trachea is 2.50 mg/kg. In addition, the LAD urinary bladder in series [1] was over 40 mg/kg. For the same compound, the IC50 in series [2] turned out to be 10 pM.
For `Cc1cccc(C)c1NC(=O)CN1CCN([C@@H]2CCN(C(=O)c3cc(C(F)(F)F)cc(C(F)(F)F)c3)[C@@H](Cc3cc(F)cc(F)c3)C2)CC1` (racemic) [Compound 133, (±)-trans-4-[1-[3,5-bis(trifluoromethyl)benzoyl]-2-[(3,5-difluorophenyl)methyl]-4-piperdinyl]-N-(2,6-dimethylphenyl)-1-piperazineacetamide], in series [1], the LAD nose is listed as 2.50 mg/kg, the LAD conjunctiva is on record as 2.50 mg/kg, the LAD forepaws was 2.50 mg/kg and the LAD trachea was 10.0 mg/kg. This compound had an LAD urinary bladder in series [1] of 10.0 mg/kg. In addition, the IC50 in series [2] turned out to be 620 pM.
Consider `Cc1cccc(C)c1NC(=O)CN1CCN(C2CCN(C(=O)c3cc(C(F)(F)F)cc(C(F)(F)F)c3)C(Cc3ccccc3)C2)CC1` (single isomer, unassigned) [Compound 42], for which, in series [1], the LAD nose is listed as 1.25 mg/kg, the LAD conjunctiva amounted to 2.50 mg/kg, the LAD forepaws turned out to be 1.25 mg/kg and the LAD trachea came out at 5.00 mg/kg. For the same compound, in series [1], the LAD urinary bladder is listed as 5.00 mg/kg. In series [2], this compound yielded an IC50 of 930 pM.
In series [1], `O=C(C(c1ccccc1)N1CCN(C2CCN(C(=O)c3cc(C(F)(F)F)cc(C(F)(F)F)c3)C(Cc3ccccc3)C2)CC1)N1CCCC1` (mixture of isomers) [Compound 46] gave an LAD nose of 0.63 mg/kg, an LAD conjunctiva of 0.63 mg/kg, an LAD forepaws of 0.63 mg/kg and an LAD trachea of over 40 mg/kg. The same compound yielded an LAD urinary bladder in series [1] of 0.63 mg/kg. This compound came in with an IC50 in series [2] of 420 pM.
For the compound `O=C(c1cc(C(F)(F)F)cc(C(F)(F)F)c1)N1CCC(N2CCN(CCn3c(=O)[nH]c4ccccc43)CC2)CC1Cc1ccccc1` (stereo not drawn) [Compound 19], in series [1], the LAD nose is reported as 2.50 mg/kg, the LAD conjunctiva turned out to be 2.50 mg/kg, the LAD forepaws is 2.50 mg/kg and the LAD trachea was 10.0 mg/kg. In addition, the LAD urinary bladder in series [1] was over 40 mg/kg. For the same compound, the IC50 in series [2] was determined as 540 pM.
In the case of `Cc1cccc(C)c1NC(=O)C(c1ccccc1)N1CCN(C2CCN(C(=O)c3cc(C(F)(F)F)cc(C(F)(F)F)c3)C(Cc3ccccc3)C2)CC1` (racemic) [Compound 94], in series [1], the LAD nose stood at 2.50 mg/kg, the LAD conjunctiva came out at 2.50 mg/kg, the LAD forepaws worked out at 2.50 mg/kg and the LAD trachea turned out to be 10.0 mg/kg. The same compound returned an LAD urinary bladder in series [1] of 10.0 mg/kg. In addition, the midpoint of inhibition in series [2], the IC50, lay at 420 pM.
In series [1], `Cc1ncc(Cn2c(N3CCN(C4CCN(C(=O)c5cc(C(F)(F)F)cc(C(F)(F)F)c5)C(Cc5ccccc5)C4)CC3)nc3ccccc32)o1` (stereo not drawn) [Compound 24] displayed an LAD nose of 2.50 mg/kg, an LAD conjunctiva of 10.0 mg/kg, an LAD forepaws of 2.50 mg/kg and an LAD trachea of 10.0 mg/kg. The compound further showed an LAD urinary bladder in series [1] of over 40 mg/kg. Moreover, the IC50 in series [2] came out at 640 pM.
In the case of `Cc1cccc(C)c1NC(=O)CN1CCN(C2CCN(C(=O)c3cc(C(F)(F)F)cc(C(F)(F)F)c3)C(Cc3ccc(C(F)(F)F)cc3)C2)CC1` (single isomer, unassigned) [Compound 137], in series [1], the LAD nose amounted to 2.50 mg/kg, the LAD conjunctiva turned out to be 2.50 mg/kg, the LAD forepaws turned out to be 2.50 mg/kg and the LAD trachea was determined as 2.50 mg/kg. The compound further came in with an LAD urinary bladder in series [1] of 2.50 mg/kg. The same compound returned an IC50 in series [2] of 230 pM.
In series [1], `O=C(CN1CCN(C2CCN(C(=O)c3cc(C(F)(F)F)cc(C(F)(F)F)c3)C(Cc3ccccc3)C2)CC1)NC1(c2ccccc2)CCCCC1` (stereo not drawn) [Compound 49] showed an LAD nose of 2.50 mg/kg, an LAD conjunctiva of 2.50 mg/kg, an LAD forepaws of 2.50 mg/kg and an LAD trachea of 10.0 mg/kg. Moreover, in series [1], the LAD urinary bladder was over 40 mg/kg. Besides, in series [2], the IC50 was 590 pM.
`Cc1cc(C)cc(OC(=O)C(c2ccccc2)N2CCN([C@H]3CCN(C(=O)c4cc(C(F)(F)F)cc(C(F)(F)F)c4)[C@@H](Cc4ccccc4)C3)CC2)c1` (mixture of isomers) [Compound 43, (±)-3,5-dimethylphenyl cis-4-[1-[3,5-bis(trifluoromethyl)benzoyl]-2-(phenylmethyl)-4-piperidinyl]-α-phenyl-1-piperazineacetate] displayed a melting point of 88.1 °C. Moreover, the IC50 in series [2] (Sus scrofa, 0.5 h) was 5630 pM.
Regarding `O=C(O)C=CC(=O)O.O=C(O)C=CC(=O)O.O=C(c1cc(C(F)(F)F)cc(C(F)(F)F)c1)N1CCC(N2CCCN(Cc3ccccc3)CC2)CC1Cc1ccccc1` (racemic) [Compound 68], in series [1], the LAD nose came out at 10.0 mg/kg, the LAD conjunctiva was 40.0 mg/kg, the LAD forepaws worked out at 10.0 mg/kg and the LAD trachea is over 40 mg/kg. This compound gave an LAD urinary bladder in series [1] of over 40 mg/kg. In series [2], the IC50 was determined as 5880 pM.
`Cc1cccc(C)c1NC(=O)CCN1CCN(C2CCN(C(=O)c3cc(C(F)(F)F)cc(C(F)(F)F)c3)C(Cc3ccccc3)C2)CC1` (racemic) [Compound 105]: in series [1], the LAD nose worked out at 2.50 mg/kg, the LAD conjunctiva turned out to be 2.50 mg/kg, the LAD forepaws is 2.50 mg/kg and the LAD trachea is on record as over 40 mg/kg. This compound showed an LAD urinary bladder in series [1] of over 40 mg/kg. In addition, the IC50 in series [2] is 1050 pM.
As to `Cc1cccc(C)c1NC(=O)CN1CCN([C@@H]2CCN(C(=O)c3cc(C(F)(F)F)cc(C(F)(F)F)c3)[C@@H](Cc3ccccc3)C2)CC1.O=C(O)/C=C/C(=O)O` (relative stereo) [Compound 128, (B-trans)-4-[1-[3,5-bis(trifluoromethyl)benzoyl]-2-(phenylmethyl)-4-piperidinyl]-N-(2,6-dimethylphenyl)-1-piperazineacetamide (E)-2-butenedioate (1:1)], in series [1], the LAD nose came out at 0.63 mg/kg, the LAD conjunctiva stood at 0.63 mg/kg, the LAD forepaws amounted to 0.63 mg/kg and the LAD trachea is reported as over 40 mg/kg. This compound also gave an LAD urinary bladder in series [1] of 10.0 mg/kg. In series [2], this compound displayed an IC50 of 350 pM.
